Reference: US9334500B2, “Methods and pharmaceutical compositions for treating cancer” (Agency for Science, Technology and Research, priority 2011, dated 2016)
Like-named read-outs stand apart in the source and are kept apart here.

Legend:
[1] = system: MB231-LN xenograft tumor; assay: MB231-LN subcutaneous xenograft tumor growth with Erlotinib treatment; type: in vivo, mice; settings: 100 mg/kg oral gavage, 6 days per week for 4 weeks
Procedure: All raw measurements were presented as mean±SEM (standard error of the mean). Comparisons of curves between primary tumor and BLI lung metastasis growth were performed using repeated Anova analysis. Survival analysis was performed using Kaplan-Meier estimator and log-rank test. The relative hazard ratio between different groups was calculated based on Cox-proportional hazards model and presented as HR (95% CI). Other comparisons were performed using unpaired two-sided Student's t-test without equal variance assumption or nonparametric Mann-Whitney test. All statistic calculations were performed with Excel, Stata 7 and EPI info. […] For in vivo Erlotinib treatment, both control cell and UBASH3B KD MB231-LN cells were subcutaneously injected into 6-8 week female nude mice at 5×10^6 cells, followed by treatment with vehicle or Erlotinib (LC lab, #E-4007) at 100 mg/kg by oral gavage with 6 consecutive days per week for 4 weeks after average tumor volume reached around 150 mm^3. Tumors were measured by calliper three times per week and tumors volume was calculated with formula: V=W*W*L/2.

[2] = system: MB231-LN; assay: Methylcellulose assay (anchorage-independent growth); settings: for EC50: Homo sapiens
[3] = system: SUM159PT-R (Paclitaxel-resistant SUM159PT) cells; assay: Cell viability assay after Paclitaxel treatment; type: cell-based; settings: Paclitaxel-resistant SUM159PT with UBASH3B knockdown; 72 hrs
Procedure: Cell viability assay was performed and EC50 of Paclitaxel in each sample was determined and shown at the top. UBASH3B knockdown efficiency was assessed by Western blotting, shown at the bottom. *P<0.05, paired two-tailed t-test. Error bars, mean+SEM.
Cell viability was determined using CellTiter-Glo Luminescent Cell Viability Assay (Promega) as instructed by manufacturer's manual. 1000 cells were plated in 96-well plate and the readings were taken for 5 consecutive days using CellTiter-Glo kit (Promega).

[4] = system: UBASH3B expression; assay: Real-time PCR and Western blot analysis of UBASH3B expression; type: cell-based, human
Procedure: (§1) All siRNA were designed by 1st Base Singapore except for ETS1 siRNA#1 which was referenced from a previously published paper^7. Oligo miRNA mimics and antagomirs were purchased from Dharmacon, Inc. (Chicago, Ill., USA). For transfection, 30 nM siRNAs, 15 nM miRNA mimics or 100 nM iRNA antagomirs were used to transfect cells. 48 h after transfection cell pellets were collected and subjected indicated assays.
Total RNA including small RNAs was isolated using RNeasy Mini Kit (Qiagen). The microarray hybridization was performed using the Illumina HumanHT-12 V4.0 expression beadchip, and data analysis was performed using GeneSpring software from Agilent Technologies. Microarray data reported herein have been deposited at the NCBI Gene Expression Omnibus with the accession number GSE36693. Reverse transcription and quantitative PCR assays were performed using High Capacity cDNA Archive kit and KAPA SyBr Fast qPCR kit (KAPA Biosystems), respectively. TaqMan MicroRNA assays were used to quantify the level of mature miRNAs as previously described^8. Briefly, 10 ng of total RNA was reverse-transcribed and product was subjected to TaqMan stemloop miRNA assay (Applied Biosystems). RNU6B was used to normalize the data. For quantification of mRNA levels, 18S level was used as internal control. All reactions were analyzed in an Applied Biosystems 7500 Fast. Real-Time PCR system in 96-well plate format. Real-time primer sequences are listed in Supplementary Table 2.
(§2) Western Blotting was performed as described previously^9. Anti-UBASH3B (ab34781) was purchased from Abcam. Anti-EGFR (cs2232), anti-CBL (cs2747) and anti-Pan phosphor-Tyr (cs9411) was purchased from Cell Signaling. Anti-ETS1 (sc350), anti-ZEB1 (sc-2538.8), and anti-ZEB2 (sc-48789) were obtained from Santa Cruz. Anti-Myc and anti-Actin were purchased from Roche Applied Science and Sigma-Aldrich, respectively.

[5] = system: UBASH3B 3'-UTR; assay: Luciferase reporter assay with UBASH3B 3'-UTR reporters; type: cell-based; settings: wild type vs miR-200a binding site mutated reporters; 40 nM mimics
Procedure: HCT116 cells were plated at a density of 5×10^4 cells per well in 24-well plate format and transfected with 10 ng of pMIR REPORT containing the respective miRNA responsive regions of UBASH3B 3′ UTR sequence, 40 nM of miRNA mimics and 5 ng of pRL null internal control simultaneously on the next day. At 48 h after transfection, the luciferase activities were measured using the Dual Luciferase system (Promega). All luciferase readings were first normalized to corresponding internal control pRL null Renilla luciferase readings. The resulting relative activities were further normalized to appropriate controls.

[6] = system: ZEB1 and ZEB2; assay: Western blot of ZEB1 and ZEB2 expression; type: cell-based, human; settings: MB231 and BT549 overexpressing mimics
Procedure: as §1, §2

Compound: C#Cc1cccc(Nc2ncnc3cc(OCCOC)c(OCCOC)cc23)c1 [Erlotinib]
- xenograft tumor growth response to Erlotinib ([1]; UBASH3B depleted tumors): irresponsive
- xenograft tumor growth response to Erlotinib ([1]; control tumors): marked growth inhibition
- EC50 ([2]; read-out: EC50 of Erlotinib, MB231-LN cells with UBASH3B depletion): 3850 nM
- EC50 ([2]; read-out: EC50 of Erlotinib, MB231-LN control cells, without UBASH3B depletion): 450 nM
- sensitivity of cells to Erlotinib treatment ([2]; UBASH3B-depleted MB231 with ectopic overexpression of EGFR): restored the sensitivity

Compound: CC(=O)O[C@H]1C(=O)[C@@]2(C)[C@H]([C@H](OC(=O)c3ccccc3)[C@]3(O)C[C@H](OC(=O)[C@H](O)[C@@H](NC(=O)c4ccccc4)c4ccccc4)C(C)=C1C3(C)C)[C@]1(OC(C)=O)CO[C@@H]1C[C@@H]2O [Paclitaxel]
- sensitivity to Paclitaxel treatment [3]: increased sensitivity
- EC50 ([2]; read-out: EC50 of Paclitaxel, cells with UBASH3B depletion): 0.61 nM
- EC50 ([2]; read-out: EC50 of Paclitaxel, control cells, without UBASH3B depletion): 4.53 nM

Compound: N#CC(=C(/N)Sc1ccccc1N)/C(C#N)=C(\N)Sc1ccccc1N [U0126]
- UBASH3B expression ([4]; MB231 cells, 5 μM, real-time PCR, indicated time points): decrease the UBASH3B expression in a time-dependent manner

Compound: miR-200a: oligo miRNA mimic purchased from Dharmacon (UAACACUGUCUGGUAACGAUGU; listed as RNA, chemistry not given here)
- UBASH3B expression ([4]; BT549 cells, miR-200a overexpression combined with ETS1 knockdown): more pronounced downregulation
- UBASH3B mRNA and protein expression ([4]; enforced expression of mimics in invasive breast and prostate cancer cells): able to reduce
- targeting and inhibition of UBASH3B 3'-UTR reporter [5]: direct and specific targeting and inhibition
- expression of ZEB1 and ZEB2 [6]: could repress
